Source: patent US20250177448A1, “NEW USE OF PEG-PHOSPHOLIPID MOLECULES” (ICOAT MEDICAL AB, priority 2022, published 2025)

What was measured:
RBCs = assay: Complement mediated lysis of RBCs coated with PEG-phospholipid; assay type: cell-based, human; settings: ABO missmatched donors, vs non-treated controls, 37° C. 20 min
Protocol: (§1) In order to investigate if the PEG-phospholipid was able to protect against complement mediated lysis, RBCs were used from 13 different donors who were typed for Rh complex and ABO antigens. RBCs were isolated and preincubated with PEG-phospholipid at varying concentrations, free PEG or PBS as described above. Cells were then washed (and the supernatant stored for analysis) with PBS (800 g×5 min, RT) and incubated with human serum (where the complement system is active) for 20 minutes at 37° C. They were then spun down again (800 g×5 min) and the supernatant was collected for analysis of hemolysis. The RBCs were analyzed for complement fixation (cells were incubated for 10 min with a
(§2) FITC-labelled anti-C3c antibody). RBCs were resuspended with PBS (1 mL) for flow cytometry measurements. […] Post analysis processing was carried out in FlowJo (BD). The supernatant was analyzed on a variable wavelength detection plate reader, Synergy HTX, for the absorbance at 540 nm. RBCs, which were lysed via osmotic stress, were run in parallel as positive controls. The background absorbance at 540 nm from PBS containing no cells was subtracted and the difference in absorbance between cells coated with PEG-phospholipid or PBS was then calculated.

red blood cells = assay: Cell lysis of red blood cells caused by PEG-phospholipid coating; assay type: cell-based; settings: at the levels able to efficiently mask surface antigens on red blood cells
Protocol: as §1, §2

[1] = pig, in vivo
Protocol: Before surgery for both long term survival studies (SM and CLSM), samples were collected in EDTA tubes from both donors and recipients for analyses of total and differential white blood cell counts and hematology (EPK, Hb, EVF, MCV, MCHC, reticulocytes, thrombocytes). Plasma samples were analyzed for aspartate amino transferase (ASAT), alanine aminotransferase (ALAT), γ-glutamyltransferase (GT), glutamate dehydrogenase (GLDH), and creatinine at the Section of Clinical Chemistry, SLU, Uppsala.
Clinical appearance was assessed several times each day after surgery and a thorough clinical examination conducted once daily. The urinary bladders were examined every day at 9 am and […] to determine if the transplanted kidney produced urine. When possible, free-flow urine was collected and evaluated macroscopically, and density, pH, blood and protein were measured.
Each kidney was examined once after transplantation by ultrasound (Logiq e R6, GE Healthcare, Wauwatosa, U.S.A.) using linear (10 MHZ) and curvilinear (4 MHZ) probes. The length and echogenicity of the kidney as well as the corticomedullary definition were estimated. Furthermore, it was assessed whether the renal pelvic region was dilated. The blood flow in the kidney was evaluated using color Doppler. […]

[2] = tested on: Rhesus factors D, C, c, E and e on erythrocytes; assay: Agglutination test and Rh phenotyping of coated erythrocytes; assay type: cell-based; settings: 2 mg/ml final, 30 min 37° C.; one O Rh+ and two A Rh+ blood samples; vs untreated control
Protocol: Whole blood samples (one O, Rh+ blood sample and two A Rh+ blood samples) from the blood center were centrifuged in Eppendorf tubes in an Eppendorf 5810R centrifuge at 2500 rpm for 10 min at room temperature (20-25° C.) and the plasma was removed and discarded. The cell fractions were subject to three washing steps in 50 ml falcon tubes. Each washing step involved adding 45 ml phosphate buffered saline (PBS) to 1 ml cell fraction followed by centrifugation at 2500 rpm for 10 minutes at room temperature.
100 μl cell suspension was mixed with 900 μl PBS and 1000 μl PEG-phospholipid (4 mg/ml, polyethylene glycol-phospholipid with PEG of 5 kDa (PEG-phospholipid) in PBS, SUNBRIGHT® PP-050CN, N-(methylpolyoxyethylene oxycarbonyl)-1,2-dipalmitoyl-sn-glycero-3-phosphoethanolamine, sodium salt, NOF Corp., Japan) to coat the erythrocytes with 2 mg/ml PEG-phospholipid (final concentration) or 1000 μl PBS as control. The erythrocyte samples were incubated 30 min at 37° C. in an incubator under rotation in a POL-EKO laboratory incubator. The erythrocyte samples were washed three times with 2 ml PBS and centrifuged at 2500 rpm for 5 min at room temperature in a Heraeus Biofuge Pico centrifuge.
The washed erythrocyte samples were then subject to an agglutination test and Rh phenotyping. […]

Concanavalin A = settings: HUVEC, 0.5 mg/ml, without plasma exposure
Protocol: HUVEC cells were cultured with endothelial cell culture medium with supplements (Promocell) in cell culture flasks (Thermofisher Scientific) and Petri dishes (NUNC). The cells were detached using trypsin EDTA buffer for flowcytometry analysis (BD accuri C6 Serial no. 5173). The cells were rinsed with PBS (10 mL) by centrifugation (120×g, 4° C., 3 min) once and fresh medium was added to the detached cells.
In addition, HUVEC cells were incubated with PEG-phospholipid (0.5 mg/ml), with 10 mM free PEG (5 kDa), or PBS (control) at RT for 45 min followed by washing with PBS, and incubation in human serum with EDTA-plasma as control, both diluted 1:50 in PBS, for 30 min at 37° C. After washing, lectin pathway recognition molecules collectin-11 (CL-11), and mannan binding lectin (MBL), were detected using the FITC-labelled and isotype control antibodies as given in Table 1. […] In addition, FITC-labelled concavalin A (a lectin of broad specificity) was incubated with coated and native HUVECs (without prior exposure to plasma) at a concentration of 50 g/ml.
After incubation with detecting antibodies, the cells were washed with PBS. All samples were analyzed on an Accuri C6 flow cytometer, unstained cells were used to gate the endothelial cell population. 10,000 events were recorded and additional controls in the form of isotype control and unstained control were ran in parallel. […]

N-(methylpolyoxyethylene oxycarbonyl)-1,2-dipalmitoyl-sn-glycero-3-phosphoethanolamine [PEG-phospholipid]
complement-mediated RBC lysis (RBCs): reduced complement-mediated RBC lysis in a dose dependent manner
cell lysis caused by the PEG-phospholipid molecules (red blood cells): did not cause any cell lysis
toxicity or safety concerns regarding clinical, laboratory, or pathology parameters [1]: No toxicity or safety concerns
agglutination of erythrocytes (Rhesus factor antigens) [2]: inhibited agglutination
binding of Concanavalin A (Concanavalin A): substantially reduced
